Laboratory results taken from PMC4340626, “Neuronal Expression of the Human Neuropeptide S Receptor NPSR1 Identifies NPS-Induced Calcium Signaling Pathways” (PLoS ONE, 2015).
“Also recorded” adds a separate entry of the source. Where a SMILES comes first, the peptide text is derived from it.

Columns and labels:
[1] = tested on: ryanodine receptors (RyR); test: Ryanodine receptor contribution to NPS-evoked calcium signals; type: cell-based, mouse; details: NPS 500 nM, mean ± SD
IP3R = test: IP3 receptor antagonist 2-APB against NPS-evoked calcium signals; type: cell-based, mouse
[2] = tested on: transient receptor potential channel family; details: cited from earlier work
Description: In previous in vitro studies, NPSR1 has been expressed in HEK293 or CHO cells. These studies focused on comparing NPS and NPSR1 variants with respect to their Gαq and Gαs activity, i.e. their efficiency to induce intracellular calcium responses and cAMP production upon receptor stimulation, analyzing population responses from plate readers instead of confocal single-cell calcium imaging.

NPSR1 [3] = test: NPSR1 antagonist SHA68 against NPS-evoked calcium signals in NPSR1-expressing hippocampus neurons; type: cell-based, human
NPSR1 [4] = details: cited from earlier work
[5] = tested on: NPSR1-mediated calcium signals (action potentials suppressed); type: cell-based, mouse
SOCE [6] = test: SOCE blockers on slow component of NPSR1-evoked calcium signals; type: cell-based, mouse; details: NPS 500 nM
SOCE [7] = tested on: SOCE; set-up: method as in PMID 12149283, PMID 2173565, PMID 18285445, PMID 21541286; details: non-excitable cells and neurons; ref [36]–[38], [39]; cited from earlier work
STIM-mediated SOCE = details: HeLa cells overexpressing STIM1; ref [50]; cited from earlier work
Description: Store-operated calcium channels (SOCs) responsible for SOCE are known to be composed by the calcium release-activated calcium modulator 1 (ORAI) and members of the transient receptor potential type c (TRPC) channel families. Channel-activation is induced by interaction with the ER calcium sensor stromal interaction molecule (STIM).

SERCA-ATPases = test: SERCA inhibition with CPA: calcium leakage and effect on NPS-evoked calcium signals; type: cell-based, mouse
[8] = tested on: Colo205 cells expressing NPSR1; details: cited from earlier work
Description: (§1) Despite these numerous biological functions, little is known about the molecular mechanisms underlying NPS receptor activity. […] However, the intracellular pathways downstream to NPSR1 activation have not been identified in deta ...

human NPSR1 variants = details: HEK293 or CHO cells; ref [1],[10],[23]–[25]; cited from earlier work
Description: as §1

[9] = tested on: NPSR1-expressing hippocampus neurons, influx of extracellular calcium; test: NPS-evoked calcium signals in calcium-free solution / slow component (calcium influx); type: cell-based, mouse; details: NPS 500 nM, mean ± SD
[10] = target: T1, human neuropeptide S receptor (NPSR1) (Homo sapiens, UniProt Q6W5P4); test: Single-cell calcium imaging (Fluo4) of NPS-evoked calcium signals in hippocampus neurons expressing NPSR1-mCherry; type: cell-based
T1 construct: expressed in transfected cells; host or cells: primary hippocampal neurons of P0-P2 C57BL/6 mice, transduced with AAV6 AAV-NPSR1-TS-mCherry-ER (hSyn promoter)
T1 sequence (Q6W5P4 1-371): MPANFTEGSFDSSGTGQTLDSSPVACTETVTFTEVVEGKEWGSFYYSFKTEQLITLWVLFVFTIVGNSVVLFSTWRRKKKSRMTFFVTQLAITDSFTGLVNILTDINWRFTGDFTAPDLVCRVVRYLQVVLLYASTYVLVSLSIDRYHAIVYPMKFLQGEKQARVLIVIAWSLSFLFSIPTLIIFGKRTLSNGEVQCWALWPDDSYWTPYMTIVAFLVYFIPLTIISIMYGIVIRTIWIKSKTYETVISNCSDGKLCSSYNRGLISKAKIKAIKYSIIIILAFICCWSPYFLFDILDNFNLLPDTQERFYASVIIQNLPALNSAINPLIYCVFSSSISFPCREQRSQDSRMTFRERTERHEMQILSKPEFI

[11] = tested on: untransfected hippocampus neurons; test: Calcium imaging of NPS in untransfected hippocampus neurons (control); type: cell-based, mouse; details: NPS 500 nM, 936 untransfected neurons
[12] = tested on: store-operated calcium entry (SOCE); test: Store-operated calcium entry on re-addition of Ca2+ after NPS in calcium-free solution; type: cell-based, mouse; details: NPS 500 nM, n = 47 cells, mean ± SD
[13] = tested on: voltage activated calcium channels (Cav); test: Cav blocker cocktail on NPS-evoked calcium signals; type: cell-based, mouse; details: NPS 500 nM, first application, 148 neurons; mean ± SD
[14] = repeated NPS 500 nM, 675 s interval, 111 neurons, mean ± SD, ANOVA p = 0.0133

In the case of ryanodine, the “normalized mean fluorescence amplitude evoked by NPS in presence of ryanodine” value ([1]; ryanodine 50 μM (300 s pre-incubation), 136 neurons, ANOVA p < 0.0001) is reported as 0.51 ± 0.37 and the “amplitude of second NPS application normalized to the first, RyRs blocked” value ([1]; ryanodine 50 μM, t-test vs control p < 0.0001) is reported as 0.24 ± 0.25.

With 2-aminoethoxydiphenyl borate [2-APB] the “effect of 2-APB on responses to NPS” value (IP3R) was “prevented responses to NPS”, the “normalized mean fluorescence amplitude evoked by NPS after 2-APB washout” value (IP3R) was 2.2 ± 2.13 and the “normalized mean fluorescence amplitude evoked by NPS in presence of 2-APB” value (IP3R) was 0.39 ± 0.61. The “modulation of transient receptor potential channel family members” value [2] was “modulates several members of the transient receptor potential channel family”.

With O=C(NCc1ccc(F)cc1)N1CCN2C(=O)OC(c3ccccc3)(c3ccccc3)C2C1 (centres unmarked) [SHA68, 3-oxo-1,1-diphenyl-tetrahydro-oxazolo[3,4-a]pyrazine-7-carboxylic acid 4-fluoro-benzylamide] the “effect of SHA68 on NPS-evoked Ca2+ signals” value (NPSR1 [3]) was “NPS application failed to induce Ca^2+ signals in the same neurons; also recorded: reduced the effect of NPS to a level non-significantly different from baseline”, the “normalized mean fluorescence amplitude evoked by NPS after washout of SHA68” value (NPSR1 [3]) was 1.2 ± 1.6 and the “normalized mean fluorescence amplitude evoked by NPS in presence of SHA68” value (NPSR1 [3]) was 0.5 ± 0.7. For the same molecule, the “effect on NPS-mediated calcium mobilization” value (NPSR1 [4]) was “blocks NPS-mediated calcium mobilization”.

With NC1=N[C@H](O)[C@H]2[C@H]3O[C@]4(O)O[C@@H]([C@@H](O)[C@@]2(N1)[C@@H]4O)[C@]3(O)CO [TTX, tetrodotoxin] the “effect of TTX on NPSR1-mediated calcium signals” value [5] was “not affected”.

For COc1ccc2c(c1)CC[C@@H]1[C@@H]2CC[C@]2(C)[C@@H](NCCCCCCN3C(=O)C=CC3=O)CC[C@@H]12 [U73122], the “effect of U73122 on NPS-mediated calcium release” value (PLC) was “abolished NPS-mediated calcium release” and the “mean fluorescence amplitude when U73122 and NPS were co-applied” value (PLC) was 0.14 ± 0.14.

For COc1ccc(CCCOC(Cn2ccnc2)c2ccc(OC)cc2)cc1 (centres unmarked) [SKF96365], the “effect on duration and amplitude of slow component of NPSR1-evoked calcium signals” value (SOCE [6]; ML-9 50 μM, SKF96365 15 μM) is listed as “consistently reduced the duration and amplitude of the slow component”, the “integral of response amplitude of slow component in presence of SKF96365” value (SOCE [6]; SKF96365 15 μM (300 s pre-incubation), 127 cells, mean ± SD) is listed as 30.42 ± 3.8 x 10^4 (arbitrary units) and the “inhibition of SOCE” value (SOCE [7]) is listed as “inhibit SOCE”. The “inhibition of STIM-mediated SOCE” value (STIM-mediated SOCE) was “inhibit STIM-mediated SOCE”.

In the case of CC(O)=C1C(=O)C2C3c4cccc5[nH]cc(c45)CC3C(C)(C)N2C1=O (centres unmarked) [CPA, cyclopiaconic acid], the “normalized mean amplitude evoked by NPS after CPA” value (SERCA-ATPases; CPA 30 μM (500–650 s), NPS 500 nM, n = 397, mean ± SD, vs baseline p = 0.9992) is reported as 0.27 ± 0.4, the “transient increase in cytosolic calcium evoked by CPA (fluorescence amplitude)” value (SERCA-ATPases; CPA 30 μM, 397 neurons, mean ± SD) is reported as 1.6 ± 1.17 and the “effect of CPA on NPSR1-mediated calcium signals” value (SERCA-ATPases; CPA 30 μM, NPS 500 nM, n = 397, ANOVA p < 0.0001) is reported as “abolished NPSR1-mediated calcium signals”.

For CSCC[C@H](NC(=O)CNC(=O)[C@@H](NC(=O)CNC(=O)[C@@H](NC(=O)CNC(=O)[C@H](CC(N)=O)NC(=O)[C@H](CCCNC(=N)N)NC(=O)[C@H](Cc1ccccc1)NC(=O)[C@@H](N)CO)C(C)C)[C@@H](C)O)C(=O)N[C@@H](CCCCN)C(=O)N[C@@H](CCCCN)C(=O)N[C@H](C(=O)N[C@@H](CO)C(=O)N[C@@H](Cc1ccccc1)C(=O)N[C@@H](CCC(N)=O)C(=O)N[C@@H](CCCNC(=N)N)C(=O)N[C@@H](C)C(=O)N[C@@H](CCCCN)C(=O)N[C@@H](CO)C(=O)O)[C@@H](C)O [NPS, neuropeptide S] (H-SFRNGVGTGMKKTSFQRAKS-OH; N-terminus and C-terminus assumed), the “cell proliferation and MAP kinase phosphorylation” value [8] is listed as “dose-dependent stimulation of cell proliferation and MAP kinase phosphorylation”, the “calcium mobilization and cAMP accumulation” value (human NPSR1 variants) is listed as “elicit calcium mobilization and cAMP accumulation” and the “integral of response amplitude of slow component, control conditions (no SOCE blocker)” value (SOCE [6]; 229 cells, mean ± SD) is listed as 36.6 ± 8.3 x 10^4 (arbitrary units). The “normalized mean fluorescence amplitude, NPS before SHA68” value (NPSR1 [3]; NPS 250 nM, 204 neurons, mean ± SD) was 2.9 ± 1.8, the “integral of response amplitude over time, slow component, control conditions” value ([9]; 3 mM CaCl2, 229 cells) was 36.6 ± 8.3 x 10^4 (arbitrary units) and the “integral of response amplitude over time, slow component, Ca2+-free solution” value ([9]; Ca2+-free, 5 mM EGTA, 65 neurons, t-test p < 0.0001) was 23.4 ± 3.9 x 10^4 (arbitrary units). For the same molecule, the “amplitude of initial fast component of NPS-evoked calcium signal, calcium-free conditions” value ([9]; nominally calcium-free, 5 mM EGTA, 65 neurons, t-test vs control p = 0.1054) was 2.9 ± 1.9, the “normalized mean fluorescence amplitude evoked by NPS, first application before 2-APB” value (IP3R; NPS 500 nM, 166 neurons, mean ± SD) was 3.86 ± 2.34 and the “normalized mean fluorescence amplitude evoked by NPS prior to ryanodine” value ([1]; 136 neurons) was 2.7 ± 1.48. The “normalized mean fluorescence amplitude, control recordings without ryanodine, first NPS application” value ([1]; 155 control neurons) was 2.35 ± 1.9, the “normalized mean fluorescence amplitude, control recordings without ryanodine, second NPS application” value ([1]; 155 control neurons) was 1.74 ± 1.4 and the “amplitude of second NPS application normalized to the first, control cells” value ([1]; no ryanodine) was 0.77 ± 0.35. For the same molecule, the “increase in normalized mean fluorescence (f/f0) over baseline” value [10] was 3.5 ± 2.9, the “rise time of NPSR1-dependent calcium signal (5–95% of max)” value ([10]; NPS 500 nM, initial rapid component, mean ± SD) was 9.47 ± 5.77 s and the “decay time of NPSR1-dependent calcium signal (95–5% of max)” value ([10]; NPS 500 nM, slower recovery phase, mean ± SD) was 132.71 ± 94.11 s. For the same molecule, the “normalized mean fluorescence amplitude, 1st application” value [10, 14] was 3.6 ± 3.1, the “normalized mean fluorescence amplitude, 2nd application” value [10, 14] was 3.2 ± 3.3 and the “normalized mean fluorescence amplitude, 3rd application” value [10, 14] was 2.4 ± 2.3. For the same molecule, the “mean fluorescence amplitude evoked by NPS, first application before U73122” value (PLC) was 3.44 ± 1.27, the “mean fluorescence amplitude evoked by NPS before CPA” value (SERCA-ATPases; NPS 500 nM, 397 neurons, mean ± SD) was 4.4 ± 2.69 and the “calcium response to NPS in untransfected neurons” value [11] was “no increase in normalized mean fluorescence intensity could be detected; also recorded: calcium responses could not be detected”. For the same molecule, the “integral of response amplitude after re-addition of Ca2+, NPS applied once again under Ca2+-free conditions” value ([12]; ANOVA p < 0.0001) was 5.9 ± 4.9 x 10^4 (arbitrary units), the “integral of response amplitude after re-addition of Ca2+, first NPS application under calcium-free conditions” value ([12]; control without NPS 2.1 ± 3.2 x 10^4) was 14.8 ± 7.2 x 10^4 (arbitrary units) and the “integral of response amplitude during recovery phase, control conditions” value [13] was 36.2 ± 7.5 x 10^4 (arbitrary units).
